Type in all cases: cell-based
One test deals with SW480 colon cancer cells. Put plainly: Cell viability assay (CellTiter-Blue), SW480 cells, four days. The following applies: Homo sapiens; for EC50: 96 h, SW480 cell viability, four days, CellTiter-Blue; for inhibition at 10 µM: SW480, read-out: percent inhibition at 10 μM. In outline:
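Fluorescence from resazurin reduced to resorufin by metabolically active cells was the read-out, taken after ~3 h with CellTiter-Blue.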
In general terms: Resazurin is reduced to fluorescent resorufin, in cell work by metabolically active cells.

In test [1] the test system is primary human fibroblasts derived from IPF patients (LL29 cells) treated with TGF-β1. Put plainly: Inhibition of the fibrotic process: αSMA staining in TGF-β1 treated LL29 fibroblasts. As to conditions: Fibroblast; for EC50: 96 h, LL29 cells, TGF-β1 20 ng/mL, 4 days, % αSMA positive cells; for inhibition at 10 µM: read-out: percent inhibition at 10 μM. The gist of the method: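 IPF-patient-derived LL29 lung fibroblasts in F12 with 1% FBS, stimulated with TGF-β1 alongside compound; TGF-β1 plus DMSO wells served as controls. After 4 days, nuclei stained with 1 μM SYTOX green for 30 min at room temperature, alongside αSMA staining.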

In test [2] the test system is primary human mesenchymal stem cells (hMSCs). The experiment in a line: Induction of chondrogenesis in human mesenchymal stem cells (nodule area, Rhodamine B/Nile Red). The following applies: hMSC chondrogenesis; for Emax: relative to TGF-β3 (10 ng/mL) positive control, read-out: Max. Activity as % TGF-β3 activity; for EC50: concentration required to induce 50% levels of chondrogenesis of TGF-β3 positive control, read-out: Conc (nM) of 50% TGF-β3 activity. From the text:
Representative compounds were screened using primary human mesenchymal stem cells (hMSCs) to determine their ability to induce chondrogenesis (process by which cartilage is developed).
Primary human mesenchymal stem cells (hMSCs) were purchased from Lonza (Walkersville, Md.) and expanded in Mesenchymal Stem Cell Growth Media (Lonza). Cells between passage 3 and 6 were used for the experiments.
Area of nodules in each well was normalized to the average of 3 DMSO treated wells on the same plate using Excel (Microsoft Inc.). The normalized averages (fold change over DMSO) of 2 or 3 replicate wells for each compound concentration were calculated. Due to solubility limitations of some of the compounds, curve fitting was incomplete leading to inaccurate EC50 determinations.
Using TGF-β3 as a positive control, the concentration of representative compounds required to induce 50% levels of chondrogenesis is reported. In addition, the maximum activity of each compound and the respective dose that each compound reached maximum chondrogenesis activity is reported.

In test [3] the test system is Wnt activity (Sp5-Luc reporter, SW480 colon carcinoma cells). The experiment in a line: Wnt activity screening assay, Sp5-Luc reporter gene in SW480 cells. The following applies: Homo sapiens; for inhibition at 10 µM: SW480, read-out: percent inhibition at 10 μM; for EC50: Sp5-Luc reporter, SW480 cells, overnight incubation. The gist of the method: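 SW480 cells stably transduced with lentiviral Sp5 promoter (eight TCF/LEF sites)-firefly luciferase, plated at 4,000 cells/well in 1% FBS medium and incubated overnight at 37° C. Luminescence read after BrightGlo addition, normalized to DMSO-only cells; EC50 from four-parameter variable-slope nonlinear regression.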

Test [4] relates to IL-6 (THP-1 human monocyte cell line). The experiment in a line: IL-6 inhibition in LPS-stimulated THP-1 cells (HTRF). The following applies: for EC50: IL-6 inhibition, LPS-stimulated THP-1 cells, HTRF; for inhibition at 10 µM: THP-1, read-out: percentage in parentheses beside EC50 >10 (IL-6 inhibition). The gist of the method:
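THP-1 cells kept 24 h in 1% FBS medium, treated 2 h at 37 °C, then stimulated with 500 ng/mL LPS for another 22 h. IL-6 measured by HTRF as the 665/620 nm ratio; EC50 from a four-parameter fit normalized to DMSO controls.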
In general terms: In TR-FRET formats the signal depends on donor and acceptor labels being close together.

Each structure is given as a SMILES string.

The term inhibition denotes how much of the control response was suppressed.

Regarding `Cc1ccncc1-c1ccc2[nH]nc(-c3cc4c(-c5ccncc5)ccnc4[nH]3)c2c1` [Compound 117, 5-(4-Methylpyridin-3-yl)-3-(4-(pyridin-4-yl)-1H-pyrrolo[2,3-b]pyridin-2-yl)-1H-indazole], the EC50 (with SW480 colon cancer cells; in test [1]; in test [3]; in test [4]) was > 10 µM each time. In addition, the inhibition at 10 µM is 4.6% with SW480 colon cancer cells, 44.2% in test [1], 31.8% in test [3] and 31.5% in test [4]. The Emax in test [2] is 44%.
With `CC(C)(C)C(=O)Nc1cncc(-c2ccc3[nH]nc(-c4cc5c(-c6ccncc6)ccnc5[nH]4)c3c2)c1` [Compound 120, N-(5-(3-(4-(Pyridin-4-yl)-1H-pyrrolo[2,3-b]pyridin-2-yl)-1H-indazol-5-yl)pyridin-3-yl)pivalamide], the EC50 (in the test with SW480 colon cancer cells; in test [1]; in test [3]; in test [4]) was > 10 µM in each case. Further, the inhibition at 10 µM with SW480 colon cancer cells was determined as 10.7%; in test [1] it was 12.8%; in test [3], 36.6%; in test [4], 35.6%. For the same molecule, in test [2], the Emax came to 44%.
With `O=C(Nc1cncc(-c2ccc3[nH]nc(-c4cc5c(-c6ccncc6)ccnc5[nH]4)c3c2)c1)c1ccccc1` [Compound 123, N-(5-(3-(4-(Pyridin-4-yl)-1H-pyrrolo[2,3-b]pyridin-2-yl)-1H-indazol-5-yl)pyridin-3-yl)benzamide], the EC50 (with SW480 colon cancer cells; in test [1]; in test [3]; in test [4]) was > 10 µM in each case. Further, the inhibition at 10 µM with SW480 colon cancer cells worked out at 7.2%; in test [1], 49.2%; in test [3], 17.3%; in test [4] it was 20.6%. Moreover, the Emax in test [2] was found to be 19%.
As for `CN(C)Cc1cncc(-c2ccc3[nH]nc(-c4cc5c(-c6ccncc6)ccnc5[nH]4)c3c2)c1` [Compound 125, N,N-Dimethyl-1-(5-(3-(4-(pyridin-4-yl)-1H-pyrrolo[2,3-b]pyridin-2-yl)-1H-indazol-5-yl)pyridin-3-yl)methanamine], the EC50 (in the test with SW480 colon cancer cells; in test [1]; in test [3]; in test [4]) was > 10 µM each time. In addition, the inhibition at 10 µM in the test with SW480 colon cancer cells stood at 7.4%; in test [1], 0%; in test [3] it was 29.7%; in test [4], 49.7%. Further, the Emax in test [2] is 37%.
As to `CCCCC(=O)Nc1cncc(-c2ccc3[nH]nc(-c4cc5c(-c6ccncc6)ccnc5[nH]4)c3c2)c1` [Compound 131, N-(5-(3-(4-(Pyridin-4-yl)-1H-pyrrolo[2,3-b]pyridin-2-yl)-1H-indazol-5-yl)pyridin-3-yl)pentanamide], the EC50 (with SW480 colon cancer cells; in test [1]; in test [3]; in test [4]) was > 10 µM throughout. For the same molecule, the inhibition at 10 µM is 10.6% in the test with SW480 colon cancer cells, 6.3% in test [1], 16.7% in test [3] and 31.5% in test [4]. Moreover, the Emax in test [2] was 18%.
With `O=C(Nc1cncc(-c2ccc3[nH]nc(-c4cc5c(-c6ccncc6)ccnc5[nH]4)c3c2)c1)C1CCC1` [Compound 133, N-(5-(3-(4-(Pyridin-4-yl)-1H-pyrrolo[2,3-b]pyridin-2-yl)-1H-indazol-5-yl)pyridin-3-yl)cyclobutanecarboxamide], the EC50 with SW480 colon cancer cells was > 10 µM; in test [1], > 10 µM; in test [2], 900 nM; in test [3], > 10 µM; in test [4] it was > 10 µM. Moreover, the inhibition at 10 µM was 6.4% in the test with SW480 colon cancer cells, 0% in test [1], 2.8% in test [3] and 33.3% in test [4]. For the same molecule, in test [2], the Emax is 73%.
Consider `c1cc(-c2ccnc3[nH]c(-c4n[nH]c5ccc(-c6cncnc6)cc45)cc23)ccn1` [Compound 139, 3-(4-(Pyridin-4-yl)-1H-pyrrolo[2,3-b]pyridin-2-yl)-5-(pyrimidin-5-yl)-1H-indazole], for which the EC50 (in the test with SW480 colon cancer cells; in test [1]; in test [3]; in test [4]) was > 10 µM each time. The inhibition at 10 µM in the test with SW480 colon cancer cells was determined as 5.3%; in test [1], 14.5%; in test [3], 7.5%; in test [4], 43.1%. Also, the Emax in test [2] came to 17%.
In the case of `Nc1cncc(-c2ccc3[nH]nc(-c4cc5c(-c6ccccn6)ccnc5[nH]4)c3c2)c1` [Compound 143, 5-(3-(4-(Pyridin-2-yl)-1H-pyrrolo[2,3-b]pyridin-2-yl)-1H-indazol-5-yl) pyridin-3-amine], the EC50 amounted to 0.089 µM with SW480 colon cancer cells, 0.045 µM in test [1], 0.022 µM in test [3] and 0.083 µM in test [4]. Also, the Emax in test [2] was determined as 46%.
On to `CN(C)c1cncc(-c2ccc3[nH]nc(-c4cc5c(-c6ccccn6)ccnc5[nH]4)c3c2)c1` [Compound 147, N,N-Dimethyl-5-(3-(4-(pyridin-2-yl)-1H-pyrrolo[2,3-b]pyridin-2-yl)-1H-indazol-5-yl)pyridin-3-amine], for which the EC50 is > 10 µM with SW480 colon cancer cells; > 10 µM in test [1]; 10 nM in test [2]; > 10 µM in test [3]; > 10 µM in test [4]. Besides, the inhibition at 10 µM in the test on SW480 colon cancer cells is 15.4%; in test [1], 34%; in test [3], 13.7%; in test [4] it was 30.5%. Further, the Emax in test [2] was determined as 77%.
For `Nc1cncc(-c2ccc3[nH]nc(-c4cc5c(N6CCCCC6)ccnc5[nH]4)c3c2)c1` [Compound 171, 5-(3-(4-(Piperidin-1-yl)-1H-pyrrolo[2,3-b]pyridin-2-yl)-1H-indazol-5-yl) pyridin-3-amine], the EC50 with SW480 colon cancer cells was 1.23 µM; in test [1], 1.72 µM; in test [2] it was 30 nM; in test [3], 0.604 µM; in test [4], 0.622 µM. For the same molecule, the Emax in test [2] was 130%.
Take `c1cncc(-c2ccc3[nH]nc(-c4cc5c(N6CCCCC6)ccnc5[nH]4)c3c2)c1` [Compound 172, 3-(4-(Piperidin-1-yl)-1H-pyrrolo[2,3-b]pyridin-2-yl)-5-(pyridin-3-yl)-1H-indazole]: the EC50 is > 10 µM in the test on SW480 colon cancer cells; > 10 µM in test [1]; 2700 nM in test [2]; > 10 µM in test [3]; > 10 µM in test [4]. The inhibition at 10 µM in the test on SW480 colon cancer cells amounted to 8.9%; in test [1] it was 25.1%; in test [3], 48.2%; in test [4], 31.8%. For the same molecule, the Emax in test [2] turned out to be 162%.
With `c1cc(N2CCCCC2)c2cc(-c3n[nH]c4ccc(-c5cncc(CN6CCCC6)c5)cc34)[nH]c2n1` [Compound 182, 3-(4-(Piperidin-1-yl)-1H-pyrrolo[2,3-b]pyridin-2-yl)-5-(5-(pyrrolidin-1-ylmethyl)pyridin-3-yl)-1H-indazole], the EC50 was 4.08 µM in the test on SW480 colon cancer cells, 7.76 µM in test [1], > 10 µM in test [3] and 0.315 µM in test [4]. Moreover, in test [2], the Emax is 21%. Moreover, in test [3], the inhibition at 10 µM was found to be 36%.

The values are drawn from patent publication US10350199B2, “3-(1h-pyrrolo[2,3-b]pyridin-2-yl)-1h-indazoles and therapeutic uses thereof” (Samumed, LLC, priority 2015, dated 2019).
